Reference: ChEMBL document CHEMBL6078704, “Redesigning Berberines and Sanguinarines to Target Soluble Epoxide Hydrolase for Enhanced Anti-Inflammatory Efficacy” (J Med Chem, 2024)

Experiments:
[1] = target: T1, Bifunctional epoxide hydrolase 2 (Mus musculus, UniProt P34914); assay: Inhibition of male C57BL/6J mouse brain sEH assessed as quantity of 14,15-DHET level measured after 15 mins incubation by HPLC-MS analysis
T1 sequence (P34914 whole entry): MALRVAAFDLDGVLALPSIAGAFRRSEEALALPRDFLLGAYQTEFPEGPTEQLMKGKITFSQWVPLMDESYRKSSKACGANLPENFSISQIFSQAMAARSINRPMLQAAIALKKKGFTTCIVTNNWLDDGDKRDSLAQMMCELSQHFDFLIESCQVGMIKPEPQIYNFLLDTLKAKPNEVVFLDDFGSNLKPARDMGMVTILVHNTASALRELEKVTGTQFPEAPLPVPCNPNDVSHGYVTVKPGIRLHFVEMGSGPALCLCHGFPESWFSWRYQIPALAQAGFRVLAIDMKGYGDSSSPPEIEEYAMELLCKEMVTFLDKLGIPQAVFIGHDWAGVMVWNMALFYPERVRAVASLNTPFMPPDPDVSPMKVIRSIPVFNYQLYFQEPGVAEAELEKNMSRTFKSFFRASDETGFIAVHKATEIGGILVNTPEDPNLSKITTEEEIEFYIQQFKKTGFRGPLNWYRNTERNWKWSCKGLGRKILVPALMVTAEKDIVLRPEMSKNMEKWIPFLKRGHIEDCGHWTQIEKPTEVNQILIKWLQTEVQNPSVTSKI

HepG2 = assay: Cytotoxicity against human HepG2 cells assessed as cell viability at 0.5 to 5 uM measured after 48 hrs by CCK-8 assay; type: toxicity, cell-based; details: hepg2, 48 h, dose 0.5-5 µM
HEK-293T = assay: Cytotoxicity against human 293T cells assessed as cell viability at 0.5 to 5 uM measured after 48 hrs by CCK-8 assay; type: toxicity, cell-based; details: dose 0.5-5 µM
Staphylococcus aureus [2] = assay: Antimicrobial activity against Staphylococcus aureus ATCC 29213 by microbroth dilution method; type: functional
Staphylococcus aureus [3] = assay: Antimicrobial activity against methicillin-resistant Staphylococcus aureus 19B120 by microbroth dilution method; type: functional
Mus musculus [4] = assay: Anti-inflammatory activity in carrageen-induced paw edema BALB/c mouse model assessed as inhibition of soft tissue edema and inflammation measured immediately at 0.5 mg/kg, ip measured up to 6 hrs; type: functional
Mus musculus [5] = assay: Antiinflammatory activity against cerulein-induced acute pancreatitis in CD1 mouse assessed as increase in pancreatic 8,9-EET/DHET ratio at 20 mg/kg, ip pretreated with cerulein followed by compound injection on 30 and 150 mins and measured 6 hrs post cerulein treatment relative to model group; type: functional; details: time 30-360 min
Mus musculus [6] = assay: Antiinflammatory activity against cerulein-induced acute pancreatitis in CD1 mouse assessed as increase in pancreatic 14,15-EET/DHET ratio at 20 mg/kg, ip pretreated with cerulein followed by compound injection on 30 and 150 mins and measured 6 hrs post cerulein treatment relative to model group; type: functional; details: time 30-360 min
Mus musculus [7] = assay: Antiinflammatory activity against cerulein-induced acute pancreatitis in CD1 mouse assessed as increase in plasma 8,9-EET/DHET ratio at 20 mg/kg, ip pretreated with cerulein followed by compound injection on 30 and 150 mins and measured 6 hrs post cerulein treatment relative to model group; type: functional; details: time 30-360 min
Mus musculus [8] = assay: Antiinflammatory activity against cerulein-induced acute pancreatitis in CD1 mouse assessed as increase in plasma 14,15-EET/DHET ratio at 20 mg/kg, ip pretreated with cerulein followed by compound injection on 30 and 150 mins and measured 6 hrs post cerulein treatment relative to model group; type: functional; details: time 30-360 min
Mus musculus [9] = assay: Anti-inflammatory activity in carrageen-induced paw edema BALB/c mouse model assessed as inhibition of soft tissue edema and inflammation measured immediately at 20 mg/kg, po measured at 1 to 4 hrs; type: functional; details: time 1-4 hrs

IC50 [1] [nM] | SMILES | Activity (HepG2) | Activity (HEK-293T) | other results
143 | CCC(=O)N1CCC(NC(=O)Nc2ccc3c(c2)CN2CCc4cc(OC)c(OC)cc4C2C3)CC1 (stereo unspecified) |  |  | 
15.9 | O=C(NCC1CCOCC1)Nc1ccc2c(c1)CN1CCc3cc4c(cc3C1C2)OCO4 (stereo unspecified) |  |  | 
0.73 | COc1cc2c(cc1OC)CN1CCc3cc(NC(=O)NCc4ccc(OC(F)F)cc4)ccc3C1C2 (stereo unspecified) | Non-toxic | Non-toxic | 
2.34 | O=C(NCc1cccc(OC(F)(F)F)c1)Nc1ccc2c(c1)CN1CCc3cc4c(cc3C1C2)OCO4 (stereo unspecified) |  |  | 
12.1 | CN1Cc2cc(NC(=O)NCc3ccc(OC(F)(F)F)cc3)ccc2-c2ccc3ccccc3c21 |  |  | 
18.8 | CCC(=O)N1CCC(CNC(=O)Nc2ccc3c(c2)CN2CCc4cc(OC)c(OC)cc4C2C3)CC1 (stereo unspecified) |  |  | 
0.86 | COc1cc2c(cc1OC)C1Cc3ccc(NC(=O)NCc4ccc(OC(F)(F)F)cc4)cc3CN1CC2 (stereo unspecified) | Non-toxic | Non-toxic | inhibition in vivo at 0.5 mg/kg (Mus musculus [4]): 35%
2650 | COc1cc2c(cc1OC)C1Cc3ccc(NC(=O)NCC4COC4)cc3CN1CC2 (stereo unspecified) |  |  | 
9.98 | CC(C)CNC(=O)Nc1ccc2c(c1)CN1CCc3cc4c(cc3C1C2)OCO4 (stereo unspecified) |  |  | 
1.33 | COc1cc2c(cc1OC)C1Cc3ccc(NC(=O)NCc4ccc(OC(F)F)cc4)cc3CN1CC2 (stereo unspecified) | Non-toxic | Non-toxic | 
40.7 | COc1cc2c(cc1OC)C1Cc3ccc(NC(=O)Nc4ccc(OC(F)(F)F)cc4)cc3CN1CC2 (stereo unspecified) |  |  | 
21.2 | COc1cc2c(cc1OC)CN1CCc3cc(NC(=O)NCC4CCOCC4)ccc3C1C2 (stereo unspecified) |  |  | 
54.3 | COc1cc2c(cc1OC)C1Cc3ccc(NC(=O)NC[C@@H]4CCCO4)cc3CN1CC2 (stereo partly specified) |  |  | 
5.56 | CN1Cc2cc(NC(=O)NCC3CCOCC3)ccc2-c2ccc3ccccc3c21 | Non-toxic | Non-toxic | 
4.98 | COc1cc2c(cc1OC)C1Cc3ccc(NC(=O)NCC4CCCCC4)cc3CN1CC2 (stereo unspecified) |  |  | 
 | COc1cc2c(cc1OC)CN1CCc3cc(NC(=O)NCc4ccc(OC(F)(F)F)cc4)ccc3[C@H]1C2 | Non-toxic | Non-toxic | MIC (Staphylococcus aureus [2]): > 64 µg/mL; MIC (Staphylococcus aureus [3]): > 64 µg/mL; fold change (FC) (Mus musculus [5]): 6.7; fold change (FC) (Mus musculus [6]): 18.5; fold change (FC) (Mus musculus [7]): 2; fold change (FC) (Mus musculus [8]): 3.3

IC50 [1] [nM] | SMILES | Activity (HepG2) | Activity (HEK-293T) | other results
0.67 | O=C(NCc1ccc(OC(F)F)cc1)Nc1ccc2c(c1)CN1CCc3cc4c(cc3C1C2)OCO4 (stereo unspecified) | Non-toxic | Non-toxic | 
 | CCC(=O)N1CCC(NC(=O)Nc2ccc(OC(F)(F)F)cc2)CC1 |  |  | inhibition in vivo at 0.5 mg/kg (Mus musculus [4]): 15%; inhibition in vivo at 20 mg/kg (Mus musculus [9]): 25%
97.1 | CCC(=O)N1CCC(NC(=O)Nc2ccc3c(c2)CN2CCc4cc5c(cc4C2C3)OCO5)CC1 (stereo unspecified) |  |  | 
37.6 | COc1cc2c(cc1OC)-c1cc3ccc(NC(=O)NCc4ccc(OC(F)(F)F)cc4)cc3c(=O)n1CC2 |  |  | 
17.3 | COc1cc2c(cc1OC)C1Cc3ccc(NC(=O)NCc4ccc(S(N)(=O)=O)cc4)cc3CN1CC2 (stereo unspecified) |  |  | 
15.6 | CCC(=O)N1CCC(CNC(=O)Nc2ccc3c(c2)CN2CCc4cc5c(cc4C2C3)OCO5)CC1 (stereo unspecified) | Non-toxic | Non-toxic | 
6.13 | COc1cc2c(cc1OC)C1Cc3ccc(NC(=O)NCc4ccc(S(C)(=O)=O)cc4)cc3CN1CC2 (stereo unspecified) | Non-toxic | Non-toxic | inhibition in vivo at 0.5 mg/kg (Mus musculus [4]): 25%
20.5 | CC(C)CNC(=O)Nc1ccc2c(c1)CN(C)c1c-2ccc2ccccc12 |  |  | 
 | COc1cc2c(cc1OC)CN1CCc3cc(NC(=O)NCc4ccc(OC(F)(F)F)cc4)ccc3[C@@H]1C2 |  |  | inhibition in vivo at 20 mg/kg (Mus musculus [9]): 27%
42.7 | CCC(=O)N1CCC(CNC(=O)Nc2ccc3c(c2)CCN2Cc4cc(OC)c(OC)cc4CC32)CC1 (stereo unspecified) |  |  | 
2.55 | COc1cc2c(cc1OC)C1Cc3ccc(NC(=O)NCc4cccc(OC(F)(F)F)c4)cc3CN1CC2 (stereo unspecified) | Non-toxic | Non-toxic | inhibition (Mus musculus [4]): Active; Reduced Inhibition In Later Stages Of Experiment
6.94 | CCC(=O)N1CCC(CNC(=O)Nc2ccc3c(c2)CN(C)c2c-3ccc3ccccc23)CC1 | Non-toxic | Non-toxic | 
2.83 | COc1cc2c(cc1OC)CN1CCc3cc(NC(=O)NCc4ccc(OC(F)(F)F)cc4)ccc3C1C2 (stereo unspecified) | Non-toxic | Non-toxic | inhibition in vivo at 0.5 mg/kg (Mus musculus [4]): 35%
19.4 | COc1cc2c(cc1OC)C1Cc3ccc(NC(=O)NCC4CCOCC4)cc3CN1CC2 (stereo unspecified) |  |  | 
 | COc1ccc2cc3[n+](cc2c1OC)CCc1cc2c(cc1-3)OCO2 [BERBERINE] |  |  | MIC (Staphylococcus aureus [2]): 64 µg/mL; MIC (Staphylococcus aureus [3]): 32 µg/mL
1.49 | O=C(NCc1ccc(OC(F)(F)F)cc1)Nc1ccc2c(c1)CN1CCc3cc4c(cc3C1C2)OCO4 (stereo unspecified) |  |  | 

SMILES | IC50 [1] [nM] | Activity (HepG2) | Activity (HEK-293T) | other results
COc1cc2cc3[n+](cc2cc1OC)CCc1cc(NC(=O)NCc2ccc(OC(F)(F)F)cc2)ccc1-3.[Cl-] | 39.1 |  |  | MIC (Staphylococcus aureus [2]): 8 µg/mL; MIC (Staphylococcus aureus [3]): 4 µg/mL
COc1cc2c(cc1OC)-c1cc3ccc(NC(=O)NCc4ccc(OC(F)(F)F)cc4)cc3c[n+]1CC2 | 210 |  |  | MIC (Staphylococcus aureus [2]): 8 µg/mL; MIC (Staphylococcus aureus [3]): 8 µg/mL
